Results: patent US20160310578A1, “METHOD OF ACCELERATING OSTEOGENESIS” (Fuji Nihon Seito Corporation, priority 2015, published 2016)

How the values were obtained:
[1] = system: ovariectomized animals (OVX); experiment: Bone tissue analysis by 3D CTR of the femoral articular head in OVX rats (Example 4); format: in vivo, Wistar rats
Protocol: Animal experiments were conducted using ovariectomized animals (OVX). The animals used were 48 female Wistar rats with body weight of approximately 350 g. They were used in the experiments after being preliminarily reared on standard feed (CE-2 manufactured by CLEA Japan, Inc.) for one week after undergoing ovariectomy. All experiments were approved by the Animal Experiment Ethics Committee of CLEA Japan, Inc. and were conducted according to the policies thereof. The standard feed CE-2 manufactured by CLEA Japan, Inc. contains 1.06 g of calcium per 100 g of the feed as calcium carbonate and calcium iodate (according to 2009 periodic analysis average values listed on the website of CLEA Japan, Inc.). After preliminary feeding, 12 OVX rats were divided into groups of three rats each. Group A was reared on feed obtained by adding 3% collagen and 5% DFA III to the standard feed; Group B was reared on feed obtained by only adding the same amount of DFA III; Group C was reared on feed obtained by only adding the same amount of collagen; Group D was reared on the standard feed only. One week, two weeks, three weeks, and one month after the start of feeding, phenobarbital in a dose of 0.5 mg per 10 g of body weight was administered intraperitoneally to anesthetize the rats. Perfusion fixation was performed by injecting 4% paraformaldehyde solution diluted with cacodylate buffer of pH 7.4 and perfusing for 5 minutes from the left ventricle. After fixation, the articular head of the femur and the tibia of the lower limbs were extracted. 3D CTR images of the articular head were taken using a 3D Micro X-ray CTR-mCT2 for experimental animals (manufactured by Rigaku Corp.). From the 3D CTR images that were taken, five images of cross-sections in the same direction were selected, and the bone area and bone marrow area in each individual was measured and the average taken (Table 5 and FIG. 5).

[2] = system: OVX rats with osseous defect in the epiphyseal area of the tibia; experiment: Recovery promoting effect in osseous defect of the tibia in OVX rats, 3D CTR (Example 5); format: in vivo, Wistar rats; details: one month
Protocol: Animal experiments were conducted using ovariectomized animals (OVX). The animals used were 48 female Wistar rats with body weight of approximately 350 g. They were used in the experiments after being preliminarily reared on standard feed (CE-2 manufactured by CLEA Japan, Inc.) for one week after undergoing ovariectomy. All experiments were approved by the Animal Experiment Ethics Committee of CLEA Japan, Inc. and were conducted according to the policies thereof. The standard feed CE-2 manufactured by CLEA Japan, Inc. contains 1.06 g of calcium per 100 g of the feed as calcium carbonate and calcium iodate (according to 2009 periodic analysis average values listed on the website of CLEA Japan, Inc.).
Using 12 OVX rats after preliminary feeding, phenobarbital in a dose of 0.5 mg per 10 g of body weight was administered intraperitoneally to anesthetize the rats. An incision was made in the skin on the upper portion of the knee joint, and then the knee joint was exposed, and a hole approximately 0.5 mm in diameter was made using a dental round bur in the epiphyseal area of the tibia, and then the incision was sutured.
After the surgery, the rats were divided into four groups of three rats each. Group A was reared on feed obtained by adding 3% collagen and 5% DFA III to the standard feed; Group B was reared on feed obtained by only adding the same amount of DFA III; Group C was reared on feed obtained by only adding the same amount of collagen; Group D was reared on the standard feed only.
After one month of feeding, the same anesthesia was performed, and perfusion fixation was performed with 4% paraformaldehyde from the left ventricle in the same manner as the femur experiment. After fixation, the region where the surgery was performed was extracted, and after washing with 0.8 M cacodylate buffer adjusted to pH 7.4, 3D CTR images were taken using the CTR apparatus mentioned above (FIG. 6).
The bone area and the bone marrow area were measured using five images of the osseous defect in the same manner as in Example 4 (Table 6).

[3] = system: osteoblastic cell line MC3T3-E1; experiment: Effect of DFA III on the number of osteoblastic cells (MTS, absorbance 490 nm) (Example 3); format: cell-based, mouse; details: for light absorbance at 490 nm (relative number of the cells): MC3T3-E1
Protocol: The effect of DFA III on osteoblasts was examined using the osteoblastic cell line MC3T3-E1 isolated from […].
First, 3×10^5 cells of MC3T3-E1 were inoculated in 96 wells containing 90 μL of α-MEM medium containing penicillin (manufactured by Sigma) and streptomycin (manufactured by Sigma) (200 μg/mL). DFA III was added to the culture solution so as to result in concentrations of 10 mM, 50 mM, and 100 mM, and the cells were cultured at 37° C. at a CO2 concentration of 5%. Culturing was performed for five wells each for each of the concentrations, and the number of the cells was counted on day 1, day 4, day 7, and day 14 after culturing.
When counting the number of the cells, the cells were treated with 10 mM trypsin for 30 minutes under the same conditions as the cell culture, and then separated from the well. The cells were then added to 100 μL of MTS solution (manufactured by Promega Corp.), and incubated for 30 minutes under the same conditions as the cell culture, and a light absorbance at the wavelength of 490 nm was measured using a plate reader (“iMark Plate Reader” manufactured by Bio-Rad Laboratories, Inc.). The measured light absorbance represents the relative number of the cells.
The average value of the three from the five wells cultured under the same conditions was taken as the measured value. As a control, the wells were used, where the medium of the wells to which DFA III was not added.

[4] = 3% collagen and/or 5% DFA III in standard feed, one month, articular head of femur
[5] = 3% collagen and/or 5% DFA III in standard feed

OC[C@H]1O[C@@]2(CO[C@]3(CO)O[C@H](CO)[C@@H](O)[C@@H]3O2)[C@@H](O)[C@@H]1O [DFA III, Difructose anhydride III]
Proportion of bone in articular head (%) ([1]; 3% collagen and/or 5% DFA III in standard feed, one month): 56.1% | Bone area (average) [1, 4]: 320.0 μm^2 | Bone marrow area (average) [1, 4]: 250.9 μm^2 | Total area [1, 4]: 570.9 μm^2 | CTR images: compact bone and cancellous bone, comparison of the groups ([1]; one month, FIG. 4): No marked difference | increase of the proportion of bone in the articular head versus control Group D ([1]; one month, compared with standard feed only): 10.2% | more bone tissue than the group fed standard feed alone ([1]; summary of Example 4): approximately 10% | Bone area [2, 5]: 90.7 μm^2 | Bone marrow area [2, 5]: 704.8 μm^2 | Total area [2, 5]: 795.5 μm^2 | Proportion of bone in all bone (%) [2]: 11.4% | proportion of new bone formation greater than control Group D [2]: 4.6% | light absorbance at 490 nm (relative number of the cells) ([3]; 10 mM DFA III, 1 Day after culture): 0.309 | light absorbance at 490 nm (relative number of the cells) ([3]; 10 mM DFA III, 4 Day after culture): 0.323 | light absorbance at 490 nm (relative number of the cells) ([3]; 10 mM DFA III, 7 Day after culture): 0.388 | light absorbance at 490 nm (relative number of the cells) ([3]; 10 mM DFA III, 14 Day after culture): 0.736 | light absorbance at 490 nm (relative number of the cells) ([3]; 50 mM DFA III, 1 Day after culture): 0.305 | light absorbance at 490 nm (relative number of the cells) ([3]; 50 mM DFA III, 4 Day after culture): 0.380 | light absorbance at 490 nm (relative number of the cells) ([3]; 50 mM DFA III, 7 Day after culture): 0.430 | light absorbance at 490 nm (relative number of the cells) ([3]; 50 mM DFA III, 14 Day after culture): 0.849 | light absorbance at 490 nm (relative number of the cells) ([3]; 100 mM DFA III, 1 Day after culture): 0.321 | light absorbance at 490 nm (relative number of the cells) ([3]; 100 mM DFA III, 4 Day after culture): 0.390 | light absorbance at 490 nm (relative number of the cells) ([3]; 100 mM DFA III, 7 Day after culture): 0.438 | light absorbance at 490 nm (relative number of the cells) ([3]; 100 mM DFA III, 14 Day after culture): 0.988 | effect on cell division of osteoblasts ([3]; MC3T3-E1, conclusion from Table 4): stimulates cell division of osteoblasts | cell number values versus control group ([3]; day 1, day 4 and day 7 after culturing): control group exhibited higher values | cell number values versus control group ([3]; day 14 after culturing, 10, 50 and 100 mM): higher values than the control group
